# Assay results reported in the supplement of paper PMC13380429.
# Key:
# Settings in all cases: 72 h
# [1] = system: Calu-3; experiment: drug sensitivity score (DSS) for viability; higher = more toxic; extreme values may be limits of the assay
# [2] = system: Vero E6; experiment: as above
# [3] = system: U2OS; experiment: as above
# [4] = system: HepG2; experiment: as above
# [5] = system: Calu-3; experiment: cell viability relative to DMSO; higher = less toxic
# [6] = system: Vero E6; experiment: as above
# [7] = system: U2OS; experiment: as above
# [8] = system: Caco-2; experiment: as above
# [9] = system: HepG2; experiment: as above
# [10] = system: Caco-2; experiment: drug sensitivity score (DSS) for viability; higher = more toxic; extreme values may be limits of the assay
# [11] = system: Calu-3; experiment: relative viability EC50 (midpoint between 100% and the lowest measured viability); higher = less toxic
# [12] = system: Vero E6; experiment: as above
# [13] = system: U2OS; experiment: as above
# [14] = system: Caco-2; experiment: as above
# [15] = system: HepG2; experiment: as above
Structure (SMILES),drug sensitivity score [1],drug sensitivity score [2],drug sensitivity score [3],drug sensitivity score [4],cell viability ([5]; 1 nM) [%],cell viability ([5]; 10 nM) [%],cell viability ([5]; 100 nM) [%],cell viability ([5]; 1000 nM) [%],cell viability ([5]; 10000 nM) [%],cell viability ([6]; 1 nM) [%],cell viability ([6]; 10 nM) [%],cell viability ([6]; 100 nM) [%],cell viability ([6]; 1000 nM) [%],cell viability ([6]; 10000 nM) [%],cell viability ([7]; 1 nM) [%],cell viability ([7]; 10 nM) [%],cell viability ([7]; 100 nM) [%],cell viability ([7]; 1000 nM) [%],cell viability ([7]; 10000 nM) [%],cell viability ([8]; 1 nM) [%],cell viability ([8]; 10 nM) [%],cell viability ([8]; 100 nM) [%],cell viability ([8]; 1000 nM) [%],cell viability ([8]; 10000 nM) [%],cell viability ([9]; 1 nM) [%],cell viability ([9]; 10 nM) [%],cell viability ([9]; 100 nM) [%],cell viability ([9]; 1000 nM) [%],cell viability ([9]; 10000 nM) [%],drug sensitivity score [10],relative viability EC50 [11] [nM],relative viability EC50 [12] [nM],relative viability EC50 [13] [nM],relative viability EC50 [14] [nM],relative viability EC50 [15] [nM]
CC(O)(CS(=O)(=O)c1ccc(F)cc1)C(=O)Nc1ccc(C#N)c(C(F)(F)F)c1 (stereo not drawn) [bicalutamide],0,0,0,0,,,,,,,,,,,,,,,,,,,,,,,,,,,,,,,
O=C(/C=C/c1ccc(O)c(O)c1)OCCc1ccccc1 [caffeic-acid-phenethyl-ester],0,0,1.4,2.3,95.4,97.4,99.1,94.4,90.3,96.9,101,96.4,96.4,90.6,98.4,102,98.9,99.2,69.9,92,99.6,101,88.2,66.9,92,106,99.6,90.2,73.9,3.2,> 10000,> 10000,,,
CN(C)CCCN1c2ccccc2Sc2ccc(Cl)cc21 [chlorpromazine],0.9,2.2,0.1,3.9,110,97,109,102,73.8,98.5,98.8,97.4,99.6,56.9,98.9,100,93.6,102,86.2,96.3,97.3,96.5,105,88.9,96.5,102,105,91.3,52.4,0,,,> 10000,> 10000,
CS[C@H]1SC[C@H]2C(=O)N(C)[C@@H](C(C)C)C(=O)OC[C@@H](NC(=O)c3cnc4ccccc4n3)C(=O)N[C@@H](C)C(=O)N(C)[C@@H]1C(=O)N(C)[C@@H](C(C)C)C(=O)OC[C@@H](NC(=O)c1cnc3ccccc3n1)C(=O)N[C@@H](C)C(=O)N2C [echinomycin],41.3,31.7,47.9,42.9,57.6,16,27.3,35.5,36.2,104,90.4,2.1,4.6,1,54.1,0.5,0.6,2.3,1.8,63.1,54.7,57.2,63.2,75.9,77.1,9.7,6.7,7,7.7,22.8,< 1,24,1.1,,1.8
C[C@]12CC[C@@H]3c4ccc(O)cc4CC[C@H]3[C@@H]1CCC2=O [estrone],0,0,0,0,,,,,,,,,,,,,,,,,,,,,,,,,,,,,,,
COc1cc2ncnc(Nc3ccc(F)c(Cl)c3)c2cc1OCCCN1CCOCC1 [gefitinib],13.1,9.3,2.1,3.9,,,,,,,,,,,,,,,,,,,,,,,,,,4.1,414,,,,
CCc1c2c(nc3ccc(OC(=O)N4CCC(N5CCCCC5)CC4)cc13)-c1cc3c(c(=O)n1C2)COC(=O)[C@]3(O)CC [irinotecan],6.5,1.6,3.8,14.4,103,94.7,93.7,69.3,47.5,94.3,97.4,95.6,95.8,75.2,104,97.4,98.1,88.7,59.1,95.1,91.6,95.5,90.9,61.5,95.4,99.2,76.9,37.5,21.7,3.3,679,> 10000,,,244
CO[C@@H]1[C@@H](O[C@@H]2O[C@H](C)[C@@H](O[C@H]3C[C@@](C)(O)[C@@H](OC(=O)CC(C)C)[C@H](C)O3)[C@H](N(C)C)[C@H]2O)[C@@H](CC=O)C[C@@H](C)[C@@H](O)/C=C/C=C/C[C@@H](C)OC(=O)C[C@H]1OC(C)=O [josamycin],0,0,0,1.7,103,102,106,98.2,106,95,98.6,105,92.1,99.1,101,89.3,97.5,101,100,101,94.2,100,107,68,107,105,117,95,74.4,1.1,> 10000,> 10000,> 10000,,
CC(=O)O[C@]1(C(C)=O)CC[C@H]2[C@@H]3C=C(C)C4=CC(=O)CC[C@]4(C)[C@H]3CC[C@@]21C [megestrol-acetate],0,0,0,0,,,,,,,,,,,,,,,,,,,,,,,,,,,,,,,
COC(=O)c1ccc(O)cc1 [methylparaben],0,0,0,0,,,,,,,,,,,,,,,,,,,,,,,,,,,,,,,
CO[C@@H]1[C@H](N(C)C(=O)c2ccccc2)C[C@H]2O[C@]1(C)n1c3ccccc3c3c4c(c5c6ccccc6n2c5c31)C(=O)NC4 [midostaurin],7.1,7.8,8.8,9.3,89.5,88.5,102,67.3,43.3,110,101,94.3,63.9,36,102,99.2,103,59.6,29,108,111,97.4,74.9,63.3,97,94,93.9,53.9,44.3,4.7,885,793,897,,369
OC(CNCC(O)C1CCc2cc(F)ccc2O1)C1CCc2cc(F)ccc2O1 (stereo not drawn) [nebivolol],0,0,0,0,94.9,93.2,103,105,92.7,100,102,91.7,94.2,95.1,97.2,94.3,93.9,99.8,99.6,114,102,95.1,89.7,72.8,107,112,110,98.4,88.9,1.9,> 10000,> 10000,> 10000,,> 10000
NC(=O)N1c2ccccc2CC(=O)c2ccccc21 [oxcarbazepine],0,,0,0.5,96.1,93.6,82.6,105,95.1,,,,,,101,100,101,96.7,99.1,,,,,,90.8,92.3,115,90.7,87.5,,> 10000,,> 10000,,> 10000
CCN1CCCC(OC(=O)C(c2ccccc2)c2ccccc2)C1 (stereo not drawn) [piperidolate],0,0,0,0,99.1,95.2,102,105,89.3,98.8,98.7,98,98,98.2,98.4,100,100,100,92.4,89,90.3,70.2,79.2,77.9,105,89.1,115,97.8,110,7,> 10000,> 10000,> 10000,,> 10000
O=C(O)C[C@H](O)C[C@H](O)/C=C/c1c(C2CC2)nc2ccccc2c1-c1ccc(F)cc1 [pitavastatin],4.4,8.5,9.4,2.9,103,98.1,99.2,84.7,56.4,93.9,105,88.7,78,6.4,98.7,97,100,68.3,9.6,103,93.6,97.3,89.4,70.3,88.5,97.1,82,95.7,57.1,2.4,,1620,1280,,
CC[C@H](CO)Nc1nc(NCc2ccccc2)c2ncn(C(C)C)c2n1 [roscovitine],0,0,0,0,,,,,,,,,,,,,,,,,,,,,,,,,,,,,,,
N=C(N)NS(=O)(=O)c1ccc(N)cc1 [sulfaguanidine],0,0,0,0,,,,,,,,,,,,,,,,,,,,,,,,,,,,,,,
Cc1ccc(C(C)C)c(O)c1 [thymol],0,0,0,0,,,,,,,,,,,,,,,,,,,,,,,,,,,,,,,
Cn1ncc(Cl)c1-c1cc(C(=O)N[C@H](CN)Cc2ccc(F)c(F)c2)oc1Cl [uprosertib],5.8,0.8,1.4,3.3,104,107,78.4,80.5,49.9,106,102,102,94.9,83.6,95.1,99.8,94.5,96.5,76.3,98.7,99.3,86.2,71.5,53.9,101,97.4,101,85.2,68.4,6.5,693,> 10000,> 10000,,
Cc1cccc(OCC(O)CNC(C)(C)C)c1C (stereo not drawn) [xibenolol],0,0,0,,106,92.9,95.6,101,103,104,99.3,100,107,95.4,102,97.4,99.2,94.6,110,74.6,95.8,80.1,94.3,100,,,,,,0.7,> 10000,> 10000,> 10000,,
